In paper PMC7397249, “Properly Substituted Cyclic Bis-(2-bromobenzylidene) Compounds Behaved as Dual p300/CARM1 Inhibitors and Induced Apoptosis in Cancer Cells” (Molecules, 2020):

Key:
PCAF = molecular target: T1, PCAF (Homo sapiens, UniProt Q92831); experiment: HotSpot HAT activity assay, PCAF; assay type: biochemical; settings: 10-dose, from 200 μM; histone H3, [acetyl-3H]-acetyl-CoA
T1 construct: PCAF (aa 492–658, 250 nM); purchased Reaction Biology Corporation
Experimental: The newly synthesized compounds 4a–n were tested to determine their effects against acetylation and methylation epigenetic targets. First, 4a–n were screened in vitro against the two HAT enzymes p300 and PCAF. […] To determine the activity against SIRT1 and -2, 4a–n were tested starting from 200 μM solutions using a modified Fluor de Lys fluorescence-based assay with amino acids 379–382 (Arg-His-Lys-Lys(Ac)) of human p53 conjugated with aminomethylcoumarin as substrate and NAD^+ as co-substrate. […] Furthermore, 4a–n were tested against a human five-membered Polycomb repressive complex 2 (PRC2) containing EZH2, embryonic ectoderm development (EED), suppressor of zeste 12 (SUZ12), RbAp48, and adipocyte enhancer-binding protein (AEBP2), to assess their capability to inhibit the catalytic unit EZH2.
The effect of tested derivatives on the catalytic activity of p300 and PCAF was determined in a HotSpot HAT activity assay by Reaction Biology Corporation (Malvern, PA, USA) according to the company’s standard operating procedure. In brief, the recombinant catalytic domains of PCAF (aa 492–658, 250 nM) or p300 (aa 1284–1673, 30 nM) were incubated with histone H3 as substrate (5 µM) and [Acetyl-^3H]-Acetyl Coenzyme A (3 µM) as an acetyl donor in reaction buffer (50 mM Tris-HCl (pH 8.0), 50 mM NaCl, 0.1 mM EDTA, 1 mM DTT, 1 mM PMSF, 1% DMSO) for 1 h at 30 °C in the presence or absence of a dose titration of the compounds. The reaction mixture was delivered to filter-paper for detection. IC50 values were analyzed using Excel and GraphPad Prism 6.0 software (GraphPad Software Inc., San Diego, CA, USA). The experiments for p300 were performed in triplicate.

CARM1 [1] = molecular target: T2, CARM1 (Homo sapiens, UniProt Q86X55); experiment: CARM1 assay (histone H3, 3H-SAM); assay type: biochemical
T2 sequence (Q86X55 1-608): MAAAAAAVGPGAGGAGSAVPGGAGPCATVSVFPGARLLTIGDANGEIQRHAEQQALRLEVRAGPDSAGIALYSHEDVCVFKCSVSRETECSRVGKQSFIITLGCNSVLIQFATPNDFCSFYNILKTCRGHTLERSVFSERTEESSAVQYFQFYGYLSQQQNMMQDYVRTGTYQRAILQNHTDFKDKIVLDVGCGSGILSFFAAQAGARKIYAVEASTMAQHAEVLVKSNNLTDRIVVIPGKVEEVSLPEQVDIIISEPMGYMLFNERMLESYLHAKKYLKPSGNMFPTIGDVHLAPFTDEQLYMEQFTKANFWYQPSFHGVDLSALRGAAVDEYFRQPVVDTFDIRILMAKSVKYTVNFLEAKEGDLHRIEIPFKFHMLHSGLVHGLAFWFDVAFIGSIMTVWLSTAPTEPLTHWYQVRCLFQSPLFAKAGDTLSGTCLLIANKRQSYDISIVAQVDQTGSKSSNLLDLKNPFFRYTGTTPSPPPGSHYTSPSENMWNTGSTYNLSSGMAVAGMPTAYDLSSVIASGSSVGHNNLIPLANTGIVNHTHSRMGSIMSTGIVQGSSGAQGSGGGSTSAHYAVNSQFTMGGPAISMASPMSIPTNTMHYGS
Experimental: Histone H3 (5 μM) was added in freshly prepared reaction buffer (50 mM Tris-HCl (pH 8.5), 5 mM MgCl2, 50 mM NaCl, 0.01% Brij35, 1 mM DTT, 1% DMSO). CARM1 was delivered into the substrate solution and the mixture was mixed gently. Afterwards, the tested compounds dissolved in DMSO were delivered into the enzyme/substrate reaction mixture by using Acoustic Technology (Echo 550, LabCyte Inc. Sunnyvale, CA) in nanoliter range, and 1 µM ^3H-SAM was also added into the reaction mixture to initiate the reaction. The reaction mixture was incubated for 1 h at 30 °C and then it was delivered to filter-paper for detection. The data were analyzed using Excel and GraphPad Prism software for IC50 curve fits. The experiments were performed in triplicate.

NB4 cells = experiment: Cell cycle and apoptosis (sub-G1) analysis by FACS in NB4 cells; assay type: cell-based, human; settings: 5 μM, 30 h
Experimental: (§1) Compounds 4a–n were tested at 5 μM for 30 h in NB4 […] and U937 AML cells among hematological cancers, and in MCF-7 breast cancer and SH-SY5Y neuroblastoma cells among solid cancers, to determine their effects in cell cycle and apoptosis induction.
(§2) In the same cell lines, the induction of apoptosis has been evaluated through the percentage of the sub-G1 peaks.
(§3) For colorimetric exclusion, the cells (2 × 10^5 cells/mL) were plated in multiwells in triplicate. After stimulations at different times and concentrations, cells were diluted in the ratio 1:1 in Trypan Blue (Sigma) and counted with an optical microscope. For cell cycle analyses, cells were plated (2 × 10^5 cells/mL) and were harvested, centrifuged at 1200 rpm for 5 min and resuspended in 500 μL of a hypotonic solution containing 1× PBS, Sodium Citrate 0.1%, 0.1% NP-40, RNAase A and […] Propidium Iodide (PI). After 30 min at room temperature (RT) in the dark, samples were acquired by FACS-Calibur (BD Bioscences, San Jose, CA, USA) using CellQuest software (BD Biosciences). The percentage in different phases of the cell cycle was determined by ModFit LT V3 software (Verity). All experiments were performed in triplicate. Cell death was measured as percentage of cells in sub-G1 phase as in [30].

SH-SY5Y cells = experiment: Cell cycle and apoptosis (sub-G1) analysis by FACS in SH-SY5Y cells; assay type: cell-based, human; settings: 5 μM, 30 h
Experimental: as §1, §2, §3

CARM1 [2] = experiment: Western blot of H3R17me2 (CARM1 inhibition) in NB4 cells; assay type: cell-based, human; settings: 5 μM, 30 h
From the text: In NB4 cells, the levels of acetyl-H3 (acH3) and acetyl-H4 (acH4) as well as those of acetyl-H3K9/14 (AcH3K9/14, see Supplementary material) and of the non-histone substrate acetyl-α-tubulin (Ac-Tubulin) were detected as an index of p300 inhibition (Figure 4). In the same cell line, the levels of H3K27me3, histone mark of the EZH2 catalytic activity (Figure 4), as well as the level of the EZH2 expression (see Supplementary material) have been determined. Last, the amount of H3R17me2, the functional read-out of CARM1 inhibition, was determined (Figure 4).
The procedures were performed as described in [30, 31]. Primary antibodies used were: Ac-H3 (Millipore, Milan, Italy); Ac-H4 (Millipore, Milan, Italy); Ac-H3K9-14 (Diagenode, Ougrée, Belgium); Ac-α-tubulin (Sigma-Aldrich), H3K27me3 (Diagenode); H3R17me2 (Diagenode); EZH2 (Abcam, Cambridge, UK). H3 (Sigma-Aldrich), H4 (Abcam), GAPDH (Sigma) and ERKs (Santa Cruz, Biotechnology, TX, USA) were used to normalize the total protein extracts (see also Supplementary Material).

T1 sequence (Q92831 492-658): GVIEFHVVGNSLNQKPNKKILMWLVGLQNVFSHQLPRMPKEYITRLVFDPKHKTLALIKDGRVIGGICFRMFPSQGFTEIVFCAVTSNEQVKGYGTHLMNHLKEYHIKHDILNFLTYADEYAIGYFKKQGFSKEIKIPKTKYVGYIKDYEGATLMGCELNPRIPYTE

| Compound | IC50 (PCAF) [µM] | IC50 (CARM1 [1]) [µM] | induction of apoptosis, % sub-G1 peaks (NB4 cells) [%] | effect on cell cycle phases (SH-SY5Y cells) | induction of apoptosis, % sub-G1 peaks (SH-SY5Y cells) | levels of H3R17me2 (CARM1 [2]) |
| --- | --- | --- | --- | --- | --- | --- |
| O=C1/C(=C/c2ccccc2Br)CN(C(=O)C=Cc2ccccc2)C/C1=C\c1ccccc1Br [Compound 4n, 3,5-Bis((E)-2-bromobenzylidene)-1-cinnamoylpiperidin-4-one] | > 200 | 7.14 ± 2.54 |  |  |  |  |
| O=C1/C(=C/c2ccccc2Br)CN(C(=O)CCc2ccccc2)C/C1=C\c1ccccc1Br [Compound 4m, 3,5-Bis((E)-2-bromobenzylidene)-1-(3-phenylpropanoyl)piperidin-4-one] | > 200 | 0.79 ± 0.06 | 56 | arrest in the G1/S phase | 17% | most effective |
| O=C1/C(=C/c2ccccc2Br)CN(C(=O)Cc2ccccc2)C/C1=C\c1ccccc1Br [Compound 4l, 3,5-Bis((E)-2-bromobenzylidene)-1-(2-phenylacetyl)piperidin-4-one] | > 200 | 0.43 ± 0.12 | 67 | arrest in the G1/S phase |  | most effective |
| O=C1/C(=C/c2ccccc2Br)CN(CCc2ccccc2)C/C1=C\c1ccccc1Br [Compound 4f, 3,5-Bis((E)-2-bromobenzylidene)-1-phenethylpiperidin-4-one] | > 200 | 18.5 ± 0.9 |  |  |  |  |
| O=C1/C(=C/c2ccccc2Br)CN(CCCC(=O)c2ccccc2)C/C1=C\c1ccccc1Br [Compound 4j, 3,5-Bis((E)-2-bromobenzylidene)-1-(4-oxo-4-phenylbutyl)piperidin-4-one] | > 200 | 4.8 ± 1.72 |  | arrest in the G1/S phase |  |  |
| O=C1/C(=C/c2ccccc2Br)CN(Cc2ccccc2)C/C1=C\c1ccccc1Br [Compound 4e, 1-benzyl-3,5-bis((E)-2-bromobenzylidene)piperidin-4-one] | > 200 | 6.5 ± 0.86 | 30 to 40 |  |  |  |
| O=C1/C(=C/c2ccccc2Br)CN(C(=O)c2ccccc2)C/C1=C\c1ccccc1Br [Compound 4k, 1-Benzoyl-3,5-bis((E)-2-bromobenzylidene)piperidin-4-one] | > 200 | 1.33 ± 0.14 | 30 to 40 |  |  |  |
| O=C1/C(=C/c2ccccc2Br)CN(CC(=O)c2ccccc2)C/C1=C\c1ccccc1Br [Compound 4h, 3,5-Bis((E)-2-bromobenzylidene)-1-(2-oxo-2-phenylethyl)piperidin-4-one] | > 200 | 5.52 ± 0.78 | 30 to 40 | arrest in the G1/S phase | less than 20% | most effective |
| O=C1/C(=C/c2ccccc2Br)CN(CCCc2ccccc2)C/C1=C\c1ccccc1Br [Compound 4g, 3,5-Bis((E)-2-bromobenzylidene)-1-(3-phenylpropyl)piperidin-4-one] | > 200 | 12.6 ± 2.6 |  |  |  |  |
